Consider 1 compound from ChEMBL document CHEMBL4330075, “Discovery of Novel Quinoline-Chalcone Derivatives as Potent Antitumor Agents with Microtubule Polymerization Inhibitory Activity” (J Med Chem, 2019).

Data set [1] relates to K562. Briefly: Cell cycle arrest in human K562 cells assessed as accumulation of cells at G2 phase at 10 nM after 48 hrs by propidium iodide staining-based flow cytometric analysis (reference value: 15.82%). It counts as functional.
For data set [2], the target named is Tubulin (Sus scrofa, UniProt P02554+P02550). Briefly: Inhibition of porcine brain tubulin polymerization measured every 2 mins for 60 mins by spectrophotometric analysis.
Data set [3] deals with K562. Briefly: Cell cycle arrest in human K562 cells assessed as accumulation of cells at G2 phase at 5 nM after 48 hrs by propidium iodide staining-based flow cytometric analysis (reference value: 15.82%). It is filed as functional.
In data set [4] the test system is K562. The experiment in a line: Induction of apoptosis in human K562 assessed as viable cells at 5 nM after 48 hrs by Annexin V-APC/propidium iodide staining-based flow cytometric analysis (reference value: 92.34%). The following applies: K562, 48 h, read-out: Activity. It counts as functional.
Data set [5] relates to K562. Briefly: Induction of apoptosis in human K562 assessed as early apoptotic cells at 5 nM after 48 hrs by Annexin V-APC/propidium iodide staining-based flow cytometric analysis (reference value: 4.44%). It counts as functional.
In data set [6] the test system is K562. Briefly: Induction of apoptosis in human K562 assessed as necrotic cells at 5 nM after 48 hrs by Annexin V-APC/propidium iodide staining-based flow cytometric analysis (reference value: 1.92%). It is filed as functional.
For data set [7], the system named is K562. Briefly: Induction of mitochondrial membrane potential disruption in human K562 cells assessed as collapsed mitochondrial membrane potential at 5 nM after 48 hrs by JC-1 staining-based flow cytometric analysis (reference value: 0.63%). It counts as functional.
Data set [8] concerns K562. Briefly: Induction of mitochondrial membrane potential disruption in human K562 cells assessed as collapsed mitochondrial membrane potential at 10 nM after 48 hrs by JC-1 staining-based flow cytometric analysis (reference value: 0.63%). It counts as functional.
In data set [9] the test system is K562. Briefly: Induction of mitochondrial membrane potential disruption in human K562 cells assessed as intact mitochondrial membrane potential at 20 nM after 48 hrs by JC-1 staining-based flow cytometric analysis (reference value: 99.12%). It counts as functional.
Data set [10] relates to HUVEC. The experiment in a line: Antiproliferative activity against human HUVEC cells after 24 hrs by MTT assay. It counts as cell-based.
The nature of data set [11]: Toxicity in iv dosed ICR mouse assessed as mouse survival for 14 days. It is filed as organism-based. The following applies: in vivo.
A short description of data set [12]: Toxicity in ICR mouse xenografted with […] cells assessed as effect on spleen at 10 to 20 mg/kg, iv qd for 21 consecutive days by H and E staining-based assay. It is filed as organism-based. The conditions noted are these: in vivo.

Take `COc1ccc(/C=C(\C)C(=O)c2cc(C)nc3ccccc23)cc1O`: the Activity in data set [1] stood at 22.85%; in [3], 18.04%; in data set [5], 12.87%; in data set [6], 2.63%; in data set [7], 15.02%; in data set [8], 26.2%. In addition, the Activity in data set [9] is 46.39%; in data set [12], “Non-Toxic”. For the same compound, the 50% inhibitory concentration (IC50) in [2] was determined as 1710 nM; in [10], 250 nM. Further, the viability at 0.005 µM in data set [4] came out at 80.2%. Besides, the median lethal dose (LD50) at 336 h in data set [11] was 666 mg/kg.
